# Legend:
# [1] = system: CF (Citrobacter freundii); assay: MIC determination; type: cell-based; settings: CAMH broth, 20 μM Apo-Transferrin, 37° C., 18 hours
# Summary of the method: (§1)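 Growth inhibition was judged by well clarity after 18 h at 37 °C in transferrin-supplemented (20 μM apo form) CAMH. Standardized suspensions (0.08-0.1 OD600) were added within 30 min of preparation.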
# EC (Escherichia coli) = assay: MIC determination; type: cell-based; settings: 20 μM Apo-Transferrin, 37° C., 18 hours
# Summary of the method: as §1
# [2] = system: ENC (Enterobacter cloacae); assay: MIC determination; type: cell-based; settings: CAMH broth, 20 μM Apo-Transferrin, 37° C., 18 hours
# Summary of the method: as §1
# [3] = system: KOXY (Klebsiella oxytoca); assay: MIC determination; type: cell-based; settings: CAMH broth, 20 μM Apo-Transferrin, 37° C., 18 hours
# Summary of the method: as §1
# [4] = system: KP (Klebsiella pneumoniae); assay: MIC determination; type: cell-based; settings: 20 μM Apo-Transferrin, 37° C., 18 hours
# Summary of the method: as §1
# PM (Proteus mirabilis) = assay: MIC determination; type: cell-based; settings: CAMH broth, 20 μM Apo-Transferrin, 37° C., 18 hours
# Summary of the method: as §1
# SM (Serratia marcescens) = assay: MIC determination; type: cell-based; settings: CAMH broth, 20 μM Apo-Transferrin, 37° C., 18 hours
# Summary of the method: as §1
# EC(KB1 CTX-M-14) = assay: MIC determination; type: cell-based, Escherichia coli
# Summary of the method: as §1
# EC(KB2 CTX-M-14) = assay: MIC determination; type: cell-based, Escherichia coli
# Summary of the method: as §1
# KP(ATCC SHV-18) = assay: MIC determination; type: cell-based, Klebsiella pneumoniae; settings: CAMH broth, 20 μM Apo-Transferrin, 37° C., 18 hours
# Summary of the method: as §1
# KP(GJ 5934 TEM-26) = assay: MIC determination; type: cell-based, Klebsiella pneumoniae; settings: CAMH broth, 20 μM Apo-Transferrin, 37° C., 18 hours
# Summary of the method: as §1
# KP(JMI KPC-2) = assay: MIC determination; type: cell-based, Klebsiella pneumoniae; settings: CAMH broth, 20 μM Apo-Transferrin, 37° C., 18 hours
# Summary of the method: as §1
# KP(ATCC TEM-10/TEM-12) = type: cell-based, Klebsiella pneumoniae; settings: CAMH broth, 20 μM Apo-Transferrin, 37° C., 18 hours
# Experimental: (§2) Sterile technique was used throughout these experiments. Suspensions of organisms were removed from storage (−80° C.) and partially thawed. Partially thawed organisms (1 μL) were inoculated into 3 mL sterile LB Broth in a sterile culture tube and capped, then cultured at 37° C. with shaking for 4-5 hours until the optical density at 600 nm (OD600) was greater than 0.1 on a single beam spectrophotometer.
# (§3) The concentration of organisms was adjusted to 0.08-0.1 OD600 (0.5 McFarland units) by dilution with sterile cation-adjusted Meuller-Hinton (CAMH) broth. The suspensions were used within 30 minutes of preparation.
# (§4) A stock solution was made of each test compound by measuring 6.4 mg of the compound on an analytical balance and dissolving it in DMSO (1 mL) to get a transparent solution. The solutions were stored at −20° C. and thawed prior to use.
# (§5) Sterile CAMH broth (200 μL) containing 20 μM Apo-Transferrin was pipetted into the first row of 8 columns of a sterile, round-bottomed, transparent, 96-well microplate using an 8-channel pipette equipped with sterile tips. One hundred μL was pipetted into the wells of the remaining 11 rows.
# (§6) With an 8-channel pipette equipped with sterile tips, 100 μL of the first row solution was transferred to the second row and mixed. The process was repeated for the second to third rows and continued through row 11. One hundred μL from row 11 was removed and discarded so that all 12 rows contained 100 μL. Row 12 contained no compound and rows 1-11 contained 64, 32, 16, 8, 4, 2, 1, 0.5, 0.25, 0.125, […] of a given compound.
# (§7) Inoculant suspensions (0.5 μL) were added to the 12 wells of each column. The plates were then covered and incubated at 37° C. overnight for 18 hours.
# (§8) For each organism the MIC was determined by identifying the transparent well with the lowest test compound concentration.
# ENA (URMC-1) = assay: MIC determination; type: cell-based, Enterobacter aerogenes; settings: CAMH broth, 20 μM Apo-Transferrin, 37° C., 18 hours
# Experimental: as §2, §3, §4, §5, §6, §7, §8
# ENA (URMC-2) = assay: MIC determination; type: cell-based, Enterobacter aerogenes; settings: CAMH broth, 20 μM Apo-Transferrin, 37° C., 18 hours
# Experimental: as §2, §3, §4, §5, §6, §7, §8
# [5] = system: various Pseudomonas strains; assay: MIC determination, summary in text; type: cell-based, Pseudomonas aeruginosa; settings: review of Tables 1-1 and 1-2
# Experimental: as §2, §3, §4, §5, §6, §7, §8
# [6] = system: both Acinetobacter baumannii strains tested; assay: MIC determination, summary in text; type: cell-based; settings: review of Table 2
# Experimental: as §2, §3, §4, §5
# With an 8-channel pipette equipped with sterile tips, 100 μL of the first row solution was transferred to the second row and mixed. […]
# as §8
# various enteric bacteria = assay: MIC determination, summary in text; type: cell-based; settings: review of Tables 3-1 to 3-6
# Experimental: as §2, §3, §4, §5
# To each well of the first row was pipetted 2.0 μL of the 6.4 mg/mL stock test compound stock solution to give 1:100 dilutions and a final concentration of 64 μg/mL and mixed.
# as §6, §7, §8
# [7] = first KP column of Table 3-1, CAMH broth
# [8] = second KP column of Table 3-1, CAMH broth
smiles,measurement,setting,value
"CC(C)(O/N=C(\C(=O)N[C@@H]1C(=O)N2C(C(=O)O)=C(C=Cc3ccc(C[N+]4(C)CCc5cc(O)c(O)cc5C4)cc3)CS[C@H]12)c1csc(N)n1)C(=O)O (mixture of isomers) [Compound 407, 2-(4-((E/Z)-2-((6R,7R)-7-((Z)-2-(2-aminothiazol-4-yl)-2-(((2-carboxypropan-2-yl)oxy)imino)acetamido)-2-carboxy-8-oxo-5-thia-1-azabicyclo[4.2.0]oct-2-en-3 yl)vinyl)benzyl)-6,7-dihydroxy-2-methyl-1,2,3,4-tetrahydroisoquinolin-2-ium]",MIC,"[1]; Citrobacter freundii, read-out: Minimum Inhibitory Concentrations, CF",≤ 0.06 µg/mL
same,MIC,"EC (Escherichia coli); Escherichia coli, first EC column of Table 3-1, CAMH broth, read-out: Minimum Inhibitory Concentrations, EC",0.25 µg/mL
same,"Minimum Inhibitory Concentrations, EC","EC (Escherichia coli); Table 3-1, CAMH broth",0.25 microgram/mL
same,"Mimimum Inhibitory Concentrations, ENC",[2],4 microgram/mL
same,MIC,"[3]; Klebsiella oxytoca, read-out: Minimum Inhibitory Concentrations, KOXY",1 µg/mL
same,"Minimum Inhibitory Concentrations, KP",[4]; [7],0.25 microgram/mL
same,"Minimum Inhibitory Concentrations, KP",[4]; [8],0.25 microgram/mL
same,MIC,"PM (Proteus mirabilis); Proteus mirabilis, read-out: Minimum Inhibitory Concentrations, PM",≤ 0.06 µg/mL
same,MIC,"SM (Serratia marcescens); Serratia marcescens, read-out: Minimum Inhibitory Concentrations, SM",0.25 µg/mL
same,MIC,"EC(KB1 CTX-M-14); Escherichia coli, 18 h, read-out: Minimum Inhibitory Concentrations, EC(KB1 CTX-M-14)",2 µg/mL
same,MIC,"EC(KB2 CTX-M-14); Escherichia coli, 18 h, read-out: Minimum Inhibitory Concentrations, EC(KB2 CTX-M-14)",64 µg/mL
same,"Minimum Inhibitory Concentrations, KP(ATCC SHV-18)",KP(ATCC SHV-18),2 microgram/mL
same,"Minimum Inhibitory Concentrations, KP(GJ 5934 TEM-26)",KP(GJ 5934 TEM-26),2 microgram/mL
same,"Minimum Inhibitory Concentrations, KP(JMI KPC-2)",KP(JMI KPC-2),16 microgram/mL
same,"Minimum Inhibitory Concentrations, KP(ATCC TEM-10/TEM-12)",KP(ATCC TEM-10/TEM-12),0.25 microgram/mL
same,MIC,"ENA (URMC-1); Klebsiella aerogenes, read-out: Minimum Inhibitory Concentrations, ENA (URMC-1)",0.5 µg/mL
same,MIC,"ENA (URMC-2); Klebsiella aerogenes, read-out: Minimum Inhibitory Concentrations, ENA (URMC-2)",0.5 µg/mL
same,"MICs for various Pseudomonas strains, in words",[5],low microgram/mL MICs
same,"MICs for both Acinetobacter baumannii strains tested, in words",[6],lower microgram/mL MICs
"CC(C)(O/N=C(\C(=O)N[C@@H]1C(=O)N2C(C(=O)O)=C(C=Cc3ccc(C[n+]4ccc5cc(O)c(O)cc5c4)cc3)CS[C@H]12)c1csc(N)n1)C(=O)O (mixture of isomers) [Compound 435, 2-(4-((E/Z)-2-((6R,7R)-7-((Z)-2-(2-aminothiazol-4-yl)-2-(((2-carboxypropan-2-yl)oxy)imino)acetamido)-2-carboxy-8-oxo-5-thia-1-azabicyclo[4.2.0]oct-2-en-3-yl)vinyl)benzyl)-6,7-dihydroxyisoquinolin-2-ium]","Minimum Inhibitory Concentrations, CF",[1],≤0.06 microgram/mL
same,"Minimum Inhibitory Concentrations, EC","EC (Escherichia coli); Table 3-1, CAMH broth",≤0.06 microgram/mL
same,"Minimum Inhibitory Concentrations, EC","EC (Escherichia coli); first EC column of Table 3-1, CAMH broth",≤0.06 microgram/mL
same,"Mimimum Inhibitory Concentrations, ENC",[2],16 microgram/mL
same,"Minimum Inhibitory Concentrations, KOXY",[3],≤0.06 microgram/mL
same,"Minimum Inhibitory Concentrations, KP",[4]; [7],≤0.06 microgram/mL
same,"Minimum Inhibitory Concentrations, KP",[4]; [8],≤0.06 microgram/mL
same,"Minimum Inhibitory Concentrations, PM",PM (Proteus mirabilis),≤0.06 microgram/mL
same,"Minimum Inhibitory Concentrations, SM",SM (Serratia marcescens),0.25 microgram/mL
same,"Minimum Inhibitory Concentrations, EC(KB1 CTX-M-14)","EC(KB1 CTX-M-14); EC(KB1 CTX-M-14), CAMH broth, 20 μM Apo-Transferrin, 37° C., 18 hours",≤0.06 microgram/mL
same,"Minimum Inhibitory Concentrations, EC(KB2 CTX-M-14)","EC(KB2 CTX-M-14); EC(KB2 CTX-M-14), CAMH broth, 20 μM Apo-Transferrin, 37° C., 18 hours",≤0.06 microgram/mL
same,"Minimum Inhibitory Concentrations, KP(ATCC SHV-18)",KP(ATCC SHV-18),0.25 microgram/mL
same,"Minimum Inhibitory Concentrations, KP(GJ 5934 TEM-26)",KP(GJ 5934 TEM-26),<0.06 microgram/mL
same,"Minimum Inhibitory Concentrations, KP(JMI KPC-2)",KP(JMI KPC-2),4 microgram/mL
same,"Minimum Inhibitory Concentrations, KP(ATCC TEM-10/TEM-12)",KP(ATCC TEM-10/TEM-12),2 microgram/mL
same,"Minimum Inhibitory Concentrations, ENA (URMC-1)",ENA (URMC-1),0.13 microgram/mL
same,"Minimum Inhibitory Concentrations, ENA (URMC-2)",ENA (URMC-2),0.13 microgram/mL
same,"MICs for various Pseudomonas strains, in words",[5],low microgram/mL MICs
same,"MICs for various enteric bacteria, in words",various enteric bacteria,low microgram/mL MICs
